Data taken from patent US8367319B2, “Methods and compositions for the identification of antibiotics that are not susceptible to antibiotic resistance” (Wayne State University, priority 2002, dated 2013).
Values after ≈ are worked out from the molar mass of the structure shown. Read-outs that look alike come from different tables or passages of the source.

Key:
E. coli DH5 [1] = experiment: Minimum inhibitory concentration (MIC) of chloramphenicol for cells expressing plasmid-derived ribosomes (CAT reporter); type: cell-based; conditions: for MIC: Escherichia coli
E. coli DH5 [2] = experiment: as above; type: cell-based; conditions: for MIC: Escherichia coli; remark: listed apart in the source
Protocol: Bacterial strains and media. All plasmids were maintained and expressed in E. coli DH5 (supE44, hsdR17, recA1, endA1, gyrA96, thi-1 and relA1) (36). To induce synthesis of plasmid-derived rRNA from the lacUV5 promoter, IPTG was added to a final concentration of 1 mM. Chloramphenicol acetyltransferase activity was determined essentially as described by Nielsen et al. (1989) Anal. Biochem. 179: 19-23. Cultures for CAT assays were grown in LB-Ap100. MIC were determined by standard methods in microtiter plates as described in Lee, K., et al. (1997) J. Mol. Biol. 269: 732-743.
Minimum inhibitory concentration determination. MICs were determined by standard methods in microtiter plates or on solid medium. Overnight cultures grown in LB-Ap100 were diluted and induced in the same medium containing 1 mM IPTG for three hours. Approximately 10^4 induced cells were then added to wells (or spotted onto solid medium) containing LB-Ap100+ IPTG (1 mM) and chloramphenicol at increasing concentrations.

O=C(N[C@H](CO)[C@H](O)c1ccc([N+](=O)[O-])cc1)C(Cl)Cl [chloramphenicol]
MIC (E. coli DH5 [1]; DH5, pRNA122 (specialized ribosomes), uninduced, read-out: background chloramphenicol MIC): 40 to 50 µg/mL (≈ 124 to 155 µM)
MIC (E. coli DH5 [1]; DH5, uninduced cells containing pRNA100 (FIG. 13), read-out: MIC of chloramphenicol): 100 µg/mL
Chloramphenicol resistance (E. coli DH5 [1]; uninduced cells containing pRNA100): 75 µg/mL
MIC (E. coli DH5 [2]; DH5, 451 of 536 selected MBS-RBS isolates (84.1%), in the presence of inducer, read-out: MIC of chloramphenicol): 400 to 600 µg/mL
MIC (E. coli DH5 [2]; DH5, 24 h, cells expressing wild-type rRNA from pRNA122 (unmutated control), induced with 1 mM IPTG, 24 hours, read-out: MIC of chloramphenicol): 600 µg/mL
MIC (E. coli DH5 [2]; DH5, 24 h, nine slow growing MBS-RBS isolates (1.7%), in the presence of inducer, scored after 24 hours, read-out: MIC of chloramphenicol): < 350 µg/mL
MIC (E. coli DH5 [2]; DH5, pRNA122 (specialized ribosomes), induced cells, read-out: MIC of chloramphenicol): 550 to 600 µg/mL
MIC (E. coli DH5 [2]; DH5, read-out: MIC of chloramphenicol, mean over mutants, cells expressing 78 functional 790-loop mutants in pRNA122, standard deviation 89): 320 µg/mL
MIC (E. coli DH5 [2]; DH5, read-out: MIC of chloramphenicol, median and mode over mutants, cells expressing 78 functional 790-loop mutants in pRNA122): 350 µg/mL
MIC (E. coli DH5 [2]; DH5, read-out: MIC of chloramphenicol, remaining 76 selected MBS-RBS clones (14.2%), in the presence of inducer): 600 µg/mL
chloramphenicol concentration to which cells are sensitive (E. coli DH5 [2]; pRNA122 + wt MBS: CAT message translated by wild-type ribosomes): < 10 µg/mL
MIC of chloramphenicol, range over mutants (E. coli DH5 [2]; {}): 150 to 550 µg/mL
